One assay has as its target T1, PTPN1 (i.e., PTP1B) (Homo sapiens, UniProt P18031).
T1 sequence (P18031 1-435): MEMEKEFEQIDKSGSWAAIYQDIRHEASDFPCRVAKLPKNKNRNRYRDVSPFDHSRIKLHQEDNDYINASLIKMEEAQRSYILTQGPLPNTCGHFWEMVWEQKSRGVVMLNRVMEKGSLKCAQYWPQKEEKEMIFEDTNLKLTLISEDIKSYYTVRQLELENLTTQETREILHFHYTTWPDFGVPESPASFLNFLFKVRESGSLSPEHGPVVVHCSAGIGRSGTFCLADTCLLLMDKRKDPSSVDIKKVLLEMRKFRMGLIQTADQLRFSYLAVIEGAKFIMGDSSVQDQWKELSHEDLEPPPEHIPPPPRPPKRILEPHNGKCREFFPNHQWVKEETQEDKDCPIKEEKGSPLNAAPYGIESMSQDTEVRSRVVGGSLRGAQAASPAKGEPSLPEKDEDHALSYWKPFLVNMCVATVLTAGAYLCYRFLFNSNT
The assay is described as follows: Phosphatase activity assay (DiFMUP substrate), PTP1B. It is filed as biochemical. Particulars: compounds binned ≤1 uM or >1 uM. Summed up: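 Enzyme (e.g. PTPN2 0.025 ng/ul) mixed about 2 min with compound at 10 serial concentrations in 50 mM HEPES pH 7.5, 150 mM NaCl, 0.5 mM EDTA, 1 mM DTT, 0.001% Tween-20 at room temperature. DiFMUP added at each enzyme's Km (about 45 μM for PTPN2). DiFMU fluorescence (ex 360/em 450 nm) followed 15-30 min; IC50 from 4-parameter fit of rates.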

Another assay addresses T2, PTPN2 (i.e., TC-PTP) (Homo sapiens, UniProt P17706).
T2 sequence (P17706 1-415): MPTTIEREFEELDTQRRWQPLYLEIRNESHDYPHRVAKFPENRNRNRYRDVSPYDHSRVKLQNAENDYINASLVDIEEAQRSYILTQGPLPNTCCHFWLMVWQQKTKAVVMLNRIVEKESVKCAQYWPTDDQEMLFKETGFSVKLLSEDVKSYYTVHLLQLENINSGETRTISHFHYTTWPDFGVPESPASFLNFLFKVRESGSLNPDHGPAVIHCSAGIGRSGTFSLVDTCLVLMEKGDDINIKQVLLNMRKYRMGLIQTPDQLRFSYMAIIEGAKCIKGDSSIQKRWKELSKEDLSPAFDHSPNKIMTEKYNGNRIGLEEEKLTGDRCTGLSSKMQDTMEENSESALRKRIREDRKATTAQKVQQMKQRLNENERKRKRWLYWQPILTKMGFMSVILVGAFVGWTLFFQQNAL
The assay is described as follows: Phosphatase activity assay (DiFMUP substrate), PTPN2. Format: biochemical. Particulars: compounds binned ≤1 uM or >1 uM. The method in brief:
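Using a Km-level DiFMUP substrate and 0.025 ng/ul PTPN2, phosphatase activity is tracked by DiFMU emission at 450 nm over about 15–30 minutes. Initial rates at ten inhibitor concentrations give IC50 by four-parameter fitting.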

Experimental findings from US20240398828A1, “HETERO-ATOM CONTAINING COMPOUNDS AND USES THEREOF” (Kumquat Biosciences Inc., priority 2021, published 2024) are described below.

What is called IC50 is the concentration that gives 50% inhibition.

`O=C1CN(c2c(O)ccc(-c3cc(C4CC4)n(CC4CCCN4)n3)c2F)S(=O)(=O)N1` (stereo not drawn) [Compound 382, 5-(3-(5-cyclopropyl-1-(pyrrolidin-2-ylmethyl)-1H-pyrazol-3-yl)-2-fluoro-6-hydroxyphenyl)-1,2,5-thiadiazolidin-3-one 1,1-dioxide]: the 50% inhibitory concentration (IC50) on PTPN1 (i.e., PTP1B) was at most 1000 nM; at PTPN2 (i.e., TC-PTP), at most 1000 nM.

On to `CO[C@H]1CC[C@@H](n2cc(-c3ccc(O)c(N4CC(=O)NS4(=O)=O)c3F)cn2)CC1` [Compound 383, 5-(2-fluoro-6-hydroxy-3-(1-((1s,4s)-4-methoxycyclohexyl)-1H-pyrazol-4-yl)phenyl)-1,2,5-thiadiazolidin-3-one 1,1-dioxide], for which the IC50 on PTPN1 (i.e., PTP1B) is at most 1000 nM; on PTPN2 (i.e., TC-PTP), at most 1000 nM.

For the compound `O=C1CN(c2c(O)ccc(-c3ccc(NS(=O)(=O)C4CC4)c(F)c3)c2F)S(=O)(=O)N1` [Compound 384, N-(3′-(1,1-dioxido-4-oxo-1,2,5-thiadiazolidin-2-yl)-2′,3-difluoro-4′-hydroxy-[1,1′-biphenyl]-4-yl)cyclopropanesulfonamide], the IC50 was at most 1000 nM at PTPN1 (i.e., PTP1B) and at most 1000 nM on PTPN2 (i.e., TC-PTP).

In the case of `O=C1CN(c2c(O)ccc(-c3cn(CC4CCCCC4)nc3F)c2F)S(=O)(=O)N1` [Compound 385, 5-(3-(1-(cyclohexylmethyl)-3-fluoro-1H-pyrazol-4-yl)-2-fluoro-6-hydroxyphenyl)-1,2,5-thiadiazolidin-3-one 1,1-dioxide], the IC50 on PTPN1 (i.e., PTP1B) was at most 1000 nM; on PTPN2 (i.e., TC-PTP), at most 1000 nM.

Take `Cc1cnn(-c2ccc(O)c(N3CC(=O)NS3(=O)=O)c2F)c1` [Compound 386, 5-(2-fluoro-6-hydroxy-3-(4-methyl-1H-pyrazol-1-yl)phenyl)-1,2,5-thiadiazolidin-3-one 1,1-dioxide]: the 50% inhibitory concentration (IC50) at PTPN1 (i.e., PTP1B) was at most 1000 nM; at PTPN2 (i.e., TC-PTP), at most 1000 nM.

`O=C1CN(c2c(O)ccc(-c3cnn(CC4(Cl)CCC4)c3)c2F)S(=O)(=O)N1` [Compound 387, 5-(3-(1-((1-chlorocyclobutyl)methyl)-1H-pyrazol-4-yl)-2-fluoro-6-hydroxyphenyl)-1,2,5-thiadiazolidin-3-one 1,1-dioxide]: the IC50 is at most 1000 nM on PTPN1 (i.e., PTP1B) and at most 1000 nM on PTPN2 (i.e., TC-PTP).

Regarding `COC1CCN(c2cc(-c3ccc(O)c(N4CC(=O)NS4(=O)=O)c3F)[nH]n2)C1` (stereo not drawn) [Compound 388, 5-(2-fluoro-6-hydroxy-3-(3-(3-methoxypyrrolidin-1-yl)-1H-pyrazol-5-yl)phenyl)-1,2,5-thiadiazolidin-3-one 1,1-dioxide], the IC50 at PTPN1 (i.e., PTP1B) was at most 1000 nM; on PTPN2 (i.e., TC-PTP), at most 1000 nM.

Consider `CC(C)CCc1cc(-c2ccc(O)c(N3CC(=O)NS3(=O)=O)c2F)[nH]n1` [Compound 389, 5-(2-fluoro-6-hydroxy-3-(3-isopentyl-1H-pyrazol-5-yl)phenyl)-1,2,5-thiadiazolidin-3-one 1,1-dioxide], for which the half-maximal inhibitory concentration (IC50) was at most 1000 nM at PTPN1 (i.e., PTP1B) and at most 1000 nM at PTPN2 (i.e., TC-PTP).

Regarding `Cc1noc(C)c1Cn1ccc(-c2ccc(O)c(N3CC(=O)NS3(=O)=O)c2F)c1` [Compound 390, 5-(3-(1-((3,5-dimethylisoxazol-4-yl)methyl)-1H-pyrrol-3-yl)-2-fluoro-6-hydroxyphenyl)-1,2,5-thiadiazolidin-3-one 1,1-dioxide], the half-inhibitory concentration (IC50) at PTPN1 (i.e., PTP1B) was at most 1000 nM; on PTPN2 (i.e., TC-PTP), at most 1000 nM.

With `CC(C)CCn1cnc(-c2ccc(O)c(C3=CC(=O)NS3(=O)=O)c2F)c1` [Compound 391, 5-(2-fluoro-6-hydroxy-3-(1-isopentyl-1H-imidazol-4-yl)phenyl)isothiazol-3(2H)-one 1,1-dioxide], the 50% inhibitory concentration (IC50) on PTPN1 (i.e., PTP1B) was at most 1000 nM; on PTPN2 (i.e., TC-PTP), at most 1000 nM.

Take `Cn1cc(-c2ccc(O)c(N3CC(=O)NS3(=O)=O)c2F)cc1CCC1CC1` [Compound 392, 5-(3-(5-(2-cyclopropylethyl)-1-methyl-1H-pyrrol-3-yl)-2-fluoro-6-hydroxyphenyl)-1,2,5-thiadiazolidin-3-one 1,1-dioxide]: the IC50 at PTPN1 (i.e., PTP1B) was at most 1000 nM; at PTPN2 (i.e., TC-PTP), at most 1000 nM.

`O=C1CN(c2c(O)ccc(C3=CCN(CC(F)(F)F)CC3)c2F)S(=O)(=O)N1` [Compound 393, 5-(2-fluoro-6-hydroxy-3-(1-(2,2,2-trifluoroethyl)-1,2,3,6-tetrahydropyridin-4-yl)phenyl)-1,2,5-thiadiazolidin-3-one 1,1-dioxide]: the IC50 on PTPN1 (i.e., PTP1B) was at most 1000 nM; on PTPN2 (i.e., TC-PTP) it was at most 1000 nM.

As for `O=C1CN(c2c(O)ccc(-c3c[nH]c(C4CC4)c3)c2F)S(=O)(=O)N1` [Compound 394, 5-(3-(5-cyclopropyl-1H-pyrrol-3-yl)-2-fluoro-6-hydroxyphenyl)-1,2,5-thiadiazolidin-3-one 1,1-dioxide], the half-maximal inhibitory concentration (IC50) on PTPN1 (i.e., PTP1B) was at most 1000 nM; on PTPN2 (i.e., TC-PTP), at most 1000 nM.

Turning to `O=C1CN(c2c(O)ccc(-c3ccc(NC(=O)C4CC4)cc3)c2F)S(=O)(=O)N1` [Compound 395, N-(3′-(1,1-dioxido-4-oxo-1,2,5-thiadiazolidin-2-yl)-2′-fluoro-4′-hydroxy-[1,1′-biphenyl]-4-yl)cyclopropanecarboxamide], the IC50 at PTPN1 (i.e., PTP1B) is at most 1000 nM; at PTPN2 (i.e., TC-PTP) it was at most 1000 nM.

On to `O=C1CN(c2c(O)ccc(-c3cc(N4CCC5(CCN5)C4)n[nH]3)c2F)S(=O)(=O)N1` (stereo not drawn) [Compound 396, 5-(3-(3-(1,6-diazaspiro[3.4]octan-6-yl)-1H-pyrazol-5-yl)-2-fluoro-6-hydroxyphenyl)-1,2,5-thiadiazolidin-3-one 1,1-dioxide], for which the IC50 was at most 1000 nM on PTPN1 (i.e., PTP1B) and at most 1000 nM on PTPN2 (i.e., TC-PTP).

As to `CN(C)C1CCN(c2cc(-c3ccc(O)c(N4CC(=O)NS4(=O)=O)c3F)[nH]n2)C1` (stereo not drawn) [Compound 397, 5-(3-(3-(3-(dimethylamino)pyrrolidin-1-yl)-1H-pyrazol-5-yl)-2-fluoro-6-hydroxyphenyl)-1,2,5-thiadiazolidin-3-one 1,1-dioxide], the 50% inhibitory concentration (IC50) on PTPN1 (i.e., PTP1B) is at most 1000 nM; on PTPN2 (i.e., TC-PTP), at most 1000 nM.

Turning to `O=C1CN(c2c(O)ccc(C3=CC(CO)NC3)c2F)S(=O)(=O)N1` (stereo not drawn) [Compound 398, 5-(2-fluoro-6-hydroxy-3-(5-(hydroxymethyl)-2,5-dihydro-1H-pyrrol-3-yl)phenyl)-1,2,5-thiadiazolidin-3-one 1,1-dioxide], the IC50 at PTPN1 (i.e., PTP1B) was at most 1000 nM; at PTPN2 (i.e., TC-PTP), at most 1000 nM.

Take `COC(=O)C1C=C(c2ccc(O)c(N3CC(=O)NS3(=O)=O)c2F)CN1` (stereo not drawn) [Compound 399, methyl 4-(3-(1,1-dioxido-4-oxo-1,2,5-thiadiazolidin-2-yl)-2-fluoro-4-hydroxyphenyl)-2,5-dihydro-1H-pyrrole-2-carboxylate]: the concentration for half-maximal inhibition (IC50) was at most 1000 nM at PTPN1 (i.e., PTP1B) and at most 1000 nM on PTPN2 (i.e., TC-PTP).

Consider `O=C1C=C(c2c(O)ccc(-c3cc(C4CC4)n[nH]3)c2F)S(=O)(=O)N1` [Compound 400, 5-(3-(3-cyclopropyl-1H-pyrazol-5-yl)-2-fluoro-6-hydroxyphenyl)isothiazol-3(2H)-one 1,1-dioxide], for which the half-inhibitory concentration (IC50) is at most 1000 nM on PTPN1 (i.e., PTP1B) and at most 1000 nM on PTPN2 (i.e., TC-PTP).

For `O=C1CN(c2c(O)ccc(-c3cc(-c4ccccc4)no3)c2F)S(=O)(=O)N1` [Compound 401, 5-(2-fluoro-6-hydroxy-3-(3-phenylisoxazol-5-yl)phenyl)-1,2,5-thiadiazolidin-3-one 1,1-dioxide], the IC50 at PTPN1 (i.e., PTP1B) is at most 1000 nM; on PTPN2 (i.e., TC-PTP), at most 1000 nM.

With `O=C1CN(c2c(O)ccc(-c3cc(C4=CCOCC4)n[nH]3)c2F)S(=O)(=O)N1` [Compound 402, 5-(3-(3-(3,6-dihydro-2H-pyran-4-yl)-1H-pyrazol-5-yl)-2-fluoro-6-hydroxyphenyl)-1,2,5-thiadiazolidin-3-one 1,1-dioxide], the IC50 on PTPN1 (i.e., PTP1B) is at most 1000 nM; at PTPN2 (i.e., TC-PTP) it was at most 1000 nM.

On to `O=C1CN(c2c(O)ccc(-c3ccc(NC(=O)C4CC4(F)F)cc3)c2F)S(=O)(=O)N1` (stereo not drawn) [Compound 403, N-(3′-(1,1-dioxido-4-oxo-1,2,5-thiadiazolidin-2-yl)-2′-fluoro-4′-hydroxy-[1,1′-biphenyl]-4-yl)-2,2-difluorocyclopropane-1-carboxamide], for which the half-maximal inhibitory concentration (IC50) at PTPN1 (i.e., PTP1B) was at most 1000 nM; on PTPN2 (i.e., TC-PTP), at most 1000 nM.

`O=C1CN(c2c(O)ccc(C3=CCN(S(=O)(=O)c4ccccc4)C3)c2F)S(=O)(=O)N1` [Compound 404, 5-(2-fluoro-6-hydroxy-3-(1-(phenylsulfonyl)-2,5-dihydro-1H-pyrrol-3-yl)phenyl)-1,2,5-thiadiazolidin-3-one 1,1-dioxide]: the IC50 was at most 1000 nM at PTPN1 (i.e., PTP1B) and at most 1000 nM at PTPN2 (i.e., TC-PTP).

Consider `O=C1CN(c2c(O)ccc(C3=CCOCC3)c2F)S(=O)(=O)N1` [Compound 405, 5-(3-(3,6-dihydro-2H-pyran-4-yl)-2-fluoro-6-hydroxyphenyl)-1,2,5-thiadiazolidin-3-one 1,1-dioxide], for which the IC50 on PTPN1 (i.e., PTP1B) is at most 1000 nM; on PTPN2 (i.e., TC-PTP) it was at most 1000 nM.
